{"source": "patent US20250059520A1", "about": "“SGK1 INHIBITORY COMPOSITIONS AND METHODS” (Arizona Board of Regents on Behalf of the University of …, priority 2021, published 2025)", "key": {"[1]": {"test_system": "neonatal rat ventricular myocytes (NRVMs)", "assay": "PE-mediated ANP expression, growth and SGK1 degradation in NRVM with ectopic expression of the SGK1 peptide", "format": "cell-based", "details": "NRVM ± AdV-SGK1 peptide", "from_the_text": "(§1) FIGS. 11A to 11C show SGK1(122-157) Interrupts SGK1/GILZ Interaction and Decreases Cardiac Myocyte Growth. FIG. 11A illustrates how a small SGK1-related peptide could disrupt SGK1-GILZ interaction, increase SGK1 degradation and reduce cardiac myocyte growth. […] NRVM were infected with AdV-Con or FLAG-SGK-(122-157). […] FLAG IP efficiently pulled down the FLAG-SGK peptide (5, 6) as well as GILZ (7, 8).\nSGK1 and GILZ were shown herein to be increased in pathological hypertrophic human and mouse hearts. In mice, SGK1 degradation was slowed during pressure overload. Cardiac-specific deletion of SGK1 in mice decreased pressure overload-induced hypertrophy, whereas overexpression of SGK1 increased it. Removing the SGK1 ER-targeting sequence, or overexpressing GILZ decreased SGK1 degradation in neonatal rat ventricular myocytes (NRVMs) and increased growth; GILZ knockdown decreased growth. A 35 amino acid region in SGK1 that interacts with GILZ was identified; ectopic expression of this peptide increased SGK1 degradation and decreased NRVM growth.\n(§2) Thus, it is anticipated that AAV9-FLAG-SGK1-(Pep) can increase SGK1 degradation and, thus, blunt pressure overload-induced pathological cardiac hypertrophy and subsequent heart failure in mice, in vivo."}, "GILZ": {"biological_target": "T1, GILZ (Rattus norvegicus, UniProt Q9EQZ1)", "T1 construct": "FLAG IP efficiently pulled down the FLAG-SGK peptide (5, 6) as well as GILZ (7, 8); endogenous in cells; host or cells: NRVM (neonatal rat ventricular myocytes) infected with AdV-Con or AdV-FLAG-SGK1(122-157)", "T1 sequence (Q9EQZ1 1-134)": "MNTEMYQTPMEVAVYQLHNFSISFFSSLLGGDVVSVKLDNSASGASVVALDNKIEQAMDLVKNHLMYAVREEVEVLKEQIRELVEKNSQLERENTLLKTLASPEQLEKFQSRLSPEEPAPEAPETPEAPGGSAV", "assay": "FLAG immunoprecipitation of GILZ from NRVM infected with AdV-FLAG-SGK1(122-157)", "format": "binding", "from_the_text": "as §1, §2"}, "endogenous SGK1 [2]": {"test_system": "endogenous SGK1", "assay": "Rate of endogenous SGK1 degradation in NRVM", "format": "cell-based, rat", "details": "degradation dependent on Hrd1"}, "[3]": {"test_system": "adult mouse ventricular fibroblasts (AMVF)", "assay": "TGFβ-mediated induction of fibrosis and inflammasome marker mRNAs in AMVF (qRT-PCR)", "format": "cell-based", "details": "48 h", "method": "FIGS. 13A to 13C show effects of TAT-SGK1-(Pep) in AMVFs: TAT-SGK1-(Pep) [P] added to AMVFs at the conc shown±TGFβ. 48 h later cultures analyzed for α-SMA (FIG. 13A), periostin (FIG. 13B), IL1b (FIG. 13C) mRNAs shown by qRT-PCR. n=3 cultures/treatment*$ p<0.05 different from all other values (ANOVA).\n(§3) TAT-SGK1-(Pep) inhibits myocyte growth and fibroblast activation: Next, a SGK1-(Pep) peptide was designed and synthesized with an N-terminal TAT sequence to facilitate its direct delivery to cultured cells, and potentially to mice. To test its effectiveness, isolated adult mouse ventricular myocytes (AMVMs) were treated with either vehicle or a FITC-labeled form of the peptide, then imaged to show uptake (FIG. 12A). […] Thus, the TAT-SGK1-(Pep) affects AMVM growth as anticipated. […] Finally, since TGFβ-stimulated SGK1 has been implicated in fibrosis (Artunc F and Lang F. Nephron Physiol. 2014 128:35-9), a major maladaptive aspect of pressure overload cardiac pathology, the effects of the TAT-SGK1-(Pep) on TGFβ-mediated induction of two markers of fibrosis, α-smooth muscle actin (α-SMA) and periostin, was examined in adult mouse ventricular fibroblasts (AMVF). […] These findings underscore the SGK1-specificity of the peptide, as well as the possibility that some of the adaptive effects of the peptide could include dampening inflammasome activation and decreasing fibrosis."}, "[4]": {"test_system": "isolated adult mouse ventricular myocytes (AMVMs)", "assay": "Uptake, hypertrophic growth and ANP mRNA in AMVMs treated ± PE for 24 h", "format": "cell-based", "details": "AMVMs ± PE 24 h, several peptide doses", "method": "FIGS. 12A to 12E show TAT-SGK1-(Pep) Stops Growth of Myocytes.\nas §3"}, "endogenous SGK1 [5]": {"test_system": "endogenous SGK1", "assay": "Rate of endogenous SGK1 degradation in AMVM", "format": "cell-based, mouse"}, "[6]": {"test_system": "TAC-induced heart failure with reduced ejection fraction", "assay": "Heart failure induced by transaortic constriction (TAC) in mice, echocardiography", "format": "in vivo, mouse", "from_the_text": "Animals were randomly assigned to cohorts and a five-digit identifier number.\nFIGS. 18A to 18D show LV mass (FIG. 18A), ejection fraction (FIG. 18B), cardiac stiffening (E/e′) (FIG. 18C), and A wave (FIG. 18D) in mice treated with control peptide, SGK1 peptide, or delayed treatment of SGK1 peptide. The mice were 4-weeks into a 6-week heart failure paradigm induced by transaortic constriction (TAC), a gold standard preclinical model of heart failure with reduced ejection fraction. […] Consistent pressure gradients to confirm standardized severity of the TAC procedure across cohorts is performed 1-week post-TAC via carotid flow Doppler ratios of the inominate to left common carotids."}, "[7]": {"details": "chronic administration, 4 weeks into 6-week TAC paradigm"}}, "note": "Ends that are not written are not given here.", "data": [{"sequence": "VFYAVKVLQKKAILKKKEEKHIMSERNVLLKNVKHP (not fully specified) [SGK1-(Pep), FLAG-tagged amino acids 122-157 of SGK1, ectopically expressed from an adenovirus (AdV)]", "values": [{"measurement": "PE-mediated ANP expression (ANP mRNA)", "setting": "[1]", "value": "blunted PE-mediated ANP expression"}, {"measurement": "binding to GILZ in IP experiments", "setting": "GILZ", "value": "could bind to GILZ"}]}, {"sequence": "GRKKRRQRRRPQVFYAVKVLQKKAILKKKEEKHIMSERNVLLKNVKHP [TAT-SGK1-(Pep)]", "values": [{"measurement": "endogenous SGK1 degradation", "setting": "endogenous SGK1 [2]", "value": "accelerate endogenous SGK1 degradation"}, {"measurement": "TGFβ-mediated induction of periostin mRNA", "setting": "[3]", "value": "effectively inhibited induction"}, {"measurement": "TGFβ-mediated induction of α-smooth muscle actin (α-SMA) mRNA", "setting": "[3]", "value": "effectively inhibited induction"}, {"measurement": "mRNA for IL1β, marker of inflammasome activation", "setting": "[3]", "value": "inhibited"}, {"measurement": "ANP mRNA", "setting": "[4]", "value": "dose-dependent decrease"}, {"measurement": "cardiac myocyte remodeling (hypertrophic growth, width to length ratio)", "setting": "[4]", "value": "dose-dependent decrease"}, {"measurement": "endogenous SGK1 degradation", "setting": "endogenous SGK1 [5]", "value": "accelerate endogenous SGK1 degradation"}, {"measurement": "TAC-induced left ventricular hypertrophy (LV Mass)", "setting": "[6]; [7]", "value": "conferring protection"}, {"measurement": "diastolic dysfunction and cardiac stiffening (E/e′)", "setting": "[6]; [7]", "value": "conferring protection"}, {"measurement": "early indicator of congestion (mitral atrial flow velocity, A wave)", "setting": "[6]; [7]", "value": "conferring protection"}, {"measurement": "systolic dysfunction (ejection fraction)", "setting": "[6]; [7]", "value": "conferring protection"}, {"measurement": "toxic effects", "setting": "[6]; [7]", "value": "no signs of untoward toxic effects"}, {"measurement": "cardiac dysfunction and remodeling", "setting": "[6]; delayed administration starting at 2-weeks post-TAC", "value": "shows signs of cardioprotection and reversal of early cardiac dysfunction and remodeling"}]}]}
